Measurements: US9328106B2, “Cyclic ether pyrazol-4-yl-heterocyclyl-carboxamide compounds and methods of use” (Genentech, Inc., priority 2012, dated 2016)

biological target: PIM1 (Homo sapiens (Human), UniProt P11309); assay: biochemical; type: biochemical; conditions: 20 pM PIM1, 1 μM FAM-peptide, 10 μM ATP, 90 minutes at room temperature; read-out: PIM1 LC3K (KI)
Sequence (P11309 whole entry): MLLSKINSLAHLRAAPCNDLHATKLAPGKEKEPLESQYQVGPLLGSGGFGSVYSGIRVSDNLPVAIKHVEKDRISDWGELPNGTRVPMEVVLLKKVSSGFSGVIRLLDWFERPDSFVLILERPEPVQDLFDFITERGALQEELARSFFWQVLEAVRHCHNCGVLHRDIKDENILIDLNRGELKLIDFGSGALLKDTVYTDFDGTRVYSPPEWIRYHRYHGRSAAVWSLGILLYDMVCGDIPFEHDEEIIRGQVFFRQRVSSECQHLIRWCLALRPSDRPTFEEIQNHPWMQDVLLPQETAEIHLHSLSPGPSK

| Ki [nM] | SMILES |
| --- | --- |
| 0.014 | Cn1ncc(NC(=O)c2ccc(F)c(-c3c(F)cc(OCCO)cc3F)n2)c1[C@@H]1CC[C@@H](N)[C@@H](F)CO1 [Example 190, N-(5-((2S,5R,6R)-5-Amino-6-fluorooxepan-2-yl)-1-methyl-1H-pyrazol-4-yl)-6-(2,6-difluoro-4-(2-hydroxyethoxy)phenyl)-5-fluoropicolinamide] |
| 0.107 | Cn1ncc(NC(=O)c2nc(-c3cccc(C(F)(F)F)c3F)sc2N)c1[C@@H]1CC[C@@H](N)[C@H](F)CO1 [Example 156, 5-amino-N-(5-((2S,5R,6S)-5-amino-6-fluorooxepan-2-yl)-1-methyl-1H-pyrazol-4-yl)-2-(2-fluoro-3-(trifluoromethyl)phenyl)thiazole-4-carboxamide] |
| 0.341 | Cn1ncc(NC(=O)c2nc(-c3c(F)cccc3F)sc2N)c1[C@H]1CC[C@H](N)C(F)(F)CO1 [Example 169, 5-Amino-N-[5-[(2R,5S)-5-amino-6,6-difluoro-oxepan-2-yl]-1-methyl-pyrazol-4-yl]-2-(2,6-difluorophenyl)thiazole-4-carboxamide] |
| 0.084 | COC(c1cc(F)c(-c2nc(C(=O)Nc3cnn(C)c3[C@@H]3CC[C@@H](N)[C@H](F)CO3)cs2)c(F)c1)C1CC1 (stereo partly drawn) [Example 276, N-(5-((2S,5R,6S)-5-amino-6-fluorooxepan-2-yl)-1-methyl-1H-pyrazol-4-yl)-2-(4-(cyclopropyl(methoxy)methyl)-2,6-difluorophenyl)thiazole-4-carboxamide] |
| 0.514 | Cn1ncc(NC(=O)c2nc(-c3c(F)cccc3F)sc2N)c1[C@H]1OC[C@@](C)(CO)CO1 [Example 166, 5-Amino-2-(2,6-difluorophenyl)-N-[5-[5-(hydroxymethyl)-5-methyl-1,3-dioxan-2-yl]-1-methyl-pyrazol-4-yl]thiazole-4-carboxamide] |
| 0.098 | Cn1ncc(NC(=O)c2csc(-c3ccccc3F)n2)c1[C@@H]1CC[C@@H](N)[C@@H](F)CO1 [Example 318, N-(5-((2S,5R,6R)-5-amino-6-fluorooxepan-2-yl)-1-methyl-1H-pyrazol-4-yl)-2-(2-fluorophenyl)thiazole-4-carboxamide] |
| 0.053 | Cn1ncc(NC(=O)c2nc(-c3ccccc3F)sc2N)c1C12CCC(CN)(CC1)O2 [Example 139, 5-amino-N-[5-[1-(aminomethyl)-7-oxabicyclo[2.2.1]heptan-4-yl]-1-methyl-pyrazol-4-yl]-2-(2-fluorophenyl)thiazole-4-carboxamide] |
| 0.469 | Cn1ncc(NC(=O)c2nc(-c3c(F)cccc3F)sc2N)c1C1CC(F)C(N)CCO1 (stereo not shown) [Example 140, 5-amino-N-(5-(5-amino-4-fluorooxepan-2-yl)-1-methyl-1H-pyrazol-4-yl)-2-(2,6-difluorophenyl)thiazole-4-carboxamide] |
| 0.34 | Cn1ncc(NC(=O)c2csc(-c3ccncc3F)n2)c1[C@@H]1CC[C@@H](N)[C@H](F)CO1 [Example 240, N-(5-((2S,5R,6S)-5-amino-6-fluorooxepan-2-yl)-1-methyl-1H-pyrazol-4-yl)-2-(3-fluoropyridin-4-yl)thiazole-4-carboxamide] |
| 0.018 | Cn1ncc(NC(=O)c2csc(-c3c(F)cc(C(C)(F)F)cc3F)n2)c1[C@@H]1CC[C@@H](N)[C@H](F)CO1 [Example 394, N-(5-((2S,5R,6S)-5-amino-6-fluorooxepan-2-yl)-1-methyl-1H-pyrazol-4-yl)-2-(4-(1,1-difluoroethyl)-2,6-difluorophenyl)thiazole-4-carboxamide] |
| 0.015 | Cn1ncc(NC(=O)c2nc(-c3cccc(F)c3Cl)sc2N)c1[C@@H]1CC[C@@H](N)[C@H](F)CO1 [Example 337, 5-amino-N-(5-((2S,5R,6S)-5-amino-6-fluorooxepan-2-yl)-1-methyl-1H-pyrazol-4-yl)-2-(2-chloro-3-fluorophenyl)thiazole-4-carboxamide] |
| 0.026 | Cc1nn(C)cc1-c1nc(C(=O)Nc2cnn(C)c2[C@@H]2CC[C@@H](N)[C@@H](F)CO2)c(N)s1 [Example 254, 5-amino-N-(5-((2S,5R,6R)-5-amino-6-fluorooxepan-2-yl)-1-methyl-1H-pyrazol-4-yl)-2-(1,3-dimethyl-1H-pyrazol-4-yl)thiazole-4-carboxamide] |
| 0.00224 | Cn1ncc(NC(=O)c2csc(-c3c(F)cc(O[C@H]4CCOC4)cc3F)n2)c1[C@@H]1CC[C@@H](N)[C@H](F)CO1 [Example 218] |
| 0.174 | Cn1ncc(NC(=O)c2csc(-c3c(F)cccc3F)n2)c1[C@@H]1CC[C@@H](N)[C@H](O)CO1 [Example 352, N-(5-((2S,5R,6S)-5-amino-6-hydroxyoxepan-2-yl)-1-methyl-1H-pyrazol-4-yl)-2-(2,6-difluorophenyl)thiazole-4-carboxamide] |
| 5.76 | Cn1ncc(NC(=O)c2csc(-c3cncc(F)c3)n2)c1[C@@H]1CC[C@@H](N)[C@@H](F)CO1 [Example 246, N-(5-((2S,5R,6R)-5-amino-6-fluorooxepan-2-yl)-1-methyl-1H-pyrazol-4-yl)-2-(5-fluoropyridin-3-yl)thiazole-4-carboxamide] |
| 0.209 | COC1(c2c(NC(=O)c3nc(-c4c(F)cccc4F)sc3N)cnn2C)CCCCO1 (stereo not shown) [Example 103, 5-amino-2-(2,6-difluorophenyl)-N-[5-(2-methoxytetrahydropyran-2-yl)-1-methyl-pyrazol-4-yl]thiazole-4-carboxamide] |
| 0.002 | Cn1ncc(NC(=O)c2csc(-c3ccc(Cl)cc3F)n2)c1[C@@H]1CC[C@@H](N)[C@H](F)CO1 [Example 313, N-(5-((2S,5R,6S)-5-amino-6-fluorooxepan-2-yl)-1-methyl-1H-pyrazol-4-yl)-2-(4-chloro-2-fluorophenyl)thiazole-4-carboxamide] |
| 0.078 | COC(c1cc(F)c(-c2nc(C(=O)Nc3cnn(C)c3[C@@H]3CC[C@@H](N)[C@H](F)CO3)ccc2F)c(F)c1)C1CC1 (stereo partly drawn) [Example 213, N-(5-((2S,5R,6S)-5-amino-6-fluorooxepan-2-yl)-1-methyl-1H-pyrazol-4-yl)-6-(4-(cyclopropyl(methoxy)methyl)-2,6-difluorophenyl)-5-fluoropicolinamide] |
| 1.48 | COc1ccc(C(F)F)c(F)c1-c1nc(C(=O)Nc2cnn(C)c2[C@@H]2CC[C@@H](N)[C@H](F)CO2)cs1 [Example 378, N-[5-[(2S,5R,6S)-5-amino-6-fluoro-oxepan-2-yl]-1-methyl-pyrazol-4-yl]-2-[3-(difluoromethyl)-2-fluoro-6-methoxy-phenyl]thiazole-4-carboxamide] |
| 0.114 | Cn1ncc(NC(=O)c2nc(-c3c(F)cccc3F)sc2N)c1[C@H]1CC[C@H](F)[C@@H](N)CO1 [Example 153, 5-Amino-N-[5-[(2R,5S,6S)-6-amino-5-fluoro-oxepan-2-yl]-1-methyl-pyrazol-4-yl]-2-(2,6-difluorophenyl)thiazole-4-carboxamide] |
| 0.035 | COc1cccc(-c2nc(C(=O)Nc3cnn(C)c3[C@@H]3CC[C@@H](N)[C@H](F)CO3)cs2)c1 [Example 357, N-(5-((2S,5R,6S)-5-amino-6-fluorooxepan-2-yl)-1-methyl-1H-pyrazol-4-yl)-2-(3-methoxyphenyl)thiazole-4-carboxamide] |
| 0.992 | Cn1ncc(NC(=O)c2nc(C3CCCC3)sc2N)c1[C@@H]1CC[C@@H](N)[C@@H](F)CO1 [Example 272, 5-amino-N-(5-((2S,5R,6R)-5-amino-6-fluorooxepan-2-yl)-1-methyl-1H-pyrazol-4-yl)-2-cyclopentylthiazole-4-carboxamide] |
